Common to all, as to assay type: cell-based
For assay [1], the system named is primary rat dopaminergic neurons (TH positive neurons) injured with MPP+. The experiment in a line: Neuroprotective effect following exposure to MPP+. On the procedure:
This study investigated the neuroprotective effect of the Compound CR777 of example 1 on rat primary mesencephalic cultures following exposure to 1-methyl-4-phenyl pyridinium (MPP^+).
Rat dopaminergic neurons were cultured as described by Visanji et al., 2008 FASEB J. 2008; 22(7):2488-97. Briefly, the midbrains obtained from 15-day old rat embryos (Janvier Labs, France) were dissected under a microscope. The embryonic midbrains were removed and placed in ice-cold medium of Leibovitz (L15, Batch 4290114, Pan Biotech, Germany) containing 2% of Penicillin-Streptomycin (PS, Batch 1451013, Pan Biotech) and 1% of bovine serum albumin (BSA, Batch K030913, Pan Biotech). The ventral portion of the mesencephalic flexure, a region of the developing brain rich in dopaminergic neurons, was used for the cell preparations.
The midbrains were dissociated by trypsinisation for 20 min at 37° C. […] The cells were seeded in supplemented neurobasal medium at a density of 40 000 cells/well in 96 well-plates pre-coated with poly-L-lysine (Batch 3102256, Corning Biocoat) and maintained in a humidified incubator at 37° C. in 5% CO2/95% air atmosphere. Half of the medium was changed every 2 days with fresh medium.
On day 6 of culture, the medium was removed and fresh medium was added, without or with MPP+ at 4 μM diluted in control medium and let for 48 h. […]
The following conditions were assessed: (6 wells per condition) • Control (vehicle) • Compound CR777 of example 1 (1 pmol/L) • Compound CR777 of example 1 (10 pmol/L) • Compound CR777 of example 1 (100 pmol/L) • Compound CR777 of example 1 (1 nmol/L) • Compound CR777 of example 1 (10 nmol/L) • Compound CR777 of example 1 (100 nmol/L) • Compound CR777 of example 1 (1 μmol/L) • Compound CR777 of example 1 (10 μmol/L) […]
Data were expressed in percentage of control conditions (no injury, no compound=100%). All values were expressed as mean+/−SEM (standard error mean) of the 6 wells with statistical analyses on the different conditions (ANOVA followed by Dunnett's test when allowed, using GraphPad Prism software).

The subject of assay [2] is primary rat cortical neurons injured with glutamate. Briefly: Effect in rat primary cortical neurons after glutamate injury. Here is the method:
A., et al., 1999. J Neurosci 19: 2455-2463 and Callizot.
The medium was changed every 2 days. The cortical neurons were intoxicated with glutamate solution.
The following conditions were assessed: • Control (culture medium) • + glutamate (40 μM, 20 min) • + glutamate (40 μM, 20 min)+CR777 (at each concentration)

The subject of assay [3] is primary rat motor neurons injured with glutamate. Briefly: Primary motor neuron culture survival after glutamate exposure (in vitro ALS model). As to conditions: CR777 between 1 nM and 10 nM, added 1 h before glutamate (5 μM, 20 min, then 48 h). Here is the method:
The aim of this study was to study the effect of CR777 on primary motor neuron culture from rat spinal cord (SC) injured by glutamate exposure (a well validated in vitro ALS model and model of motor neuron diseases).
Rat SC motor neurons were cultured as described by Martinou et al., Neuron. 1992 April; 8(4):737-44 and Wang et al., Hum Mol Genet. 2013 Dec. 1; 22(23):4706-19. Briefly, pregnant female rats (Wistar, Janvier labs) of 14 days gestation were killed by cervical dislocation. […] Cells were then centrifuged at 180 g for 10 min at +4° C. on a layer of BSA (3.5%) in L15 medium. […] The medium was changed every day.
The following conditions were assessed: • Control • + glutamate (5 μM 20 mn then 48 h) • + glutamate (5 μM 20 mn then 48 h)+CR777 1 pmol/L • + glutamate (5 μM 20 mn then 48 h)+CR777 10 pmol/L • + glutamate (5 μM 20 mn then 48 h)+CR777 100 pmol/L • + glutamate (5 μM 20 mn then 48 h)+CR777 1 nmol/L • + glutamate (5 μM 20 mn then 48 h)+CR777 10 nmol/L • + glutamate (5 μM 20 mn then 48 h)+CR777 100 nmol/L • + glutamate (5 μM 20 mn then 48 h)+CR777 1 μmol/L • + glutamate (5 μM 20 mn then 48 h)+CR777 10 μmol/L […]
For each condition, 6 wells were assessed, 30 pictures per well were taken using ImageXpress (Molecular Devices) with 20× magnification, to assess motor neuron survival (MAP-2). […]

For `CC1=C(CO)C(=O)O[C@@H]([C@@H](C)[C@H]2CCC3C4C[C@H](SC[C@H](NC(=O)CC[C@@H](N)C(=O)O)C(=O)NCC(=O)O)[C@]5(O)[C@@H](O)C=CC(=O)[C@]5(C)C4CC[C@@]32C)C1` (stereo partly drawn) [CR777], the “TH positive neuron survival” value in assay [1] (added 1 h before MPP+ (4 μM, 48 h), all concentrations 1 pmol/L to 10 μmol/L, more particularly 10 to 100 nmol/L) is “significantly protected neurons from death”. Further, the “neuro-protective effect on MPP+ induced injuries” value in assay [1] (concentrations between 10 and 100 nmol/L, MPP+ 4 μM, 48 h) is “important and significantly neuro-protective effect”. Further, the neurite network result is on record as “moderate neuroprotective effect” in assay [2] (CR777 1 pmol/L to 10 μmol/L overall, glutamate 40 μM, 20 min); “significantly protected the neurite network” in assay [2] (only the doses of 10, 100 pM and 1 μM, glutamate 40 μM, 20 min). Also, the neuron survival entry in assay [2] (CR777 100 pM, added 1 h before glutamate (40 μM, 20 min) and let for 48 h) was “significantly protected neurons from death”; in assay [2] (CR777 from 1 nM up to 1 μM, glutamate 40 μM, 20 min), “full protection”. For the same compound, the “concentration at which the maximal effect on neurite network was observed” value in assay [2] (glutamate 40 μM, 20 min) amounted to 1 µM. Besides, the “concentration at which the maximal effect on neuron survival was reached” value in assay [2] (glutamate 40 μM, 20 min, dose dependent) is 10 nM. Further, in assay [3], the motor neuron survival result is “moderate and significant protective effect”.

The record behind these values is patent publication US11634452B2, “Compounds for treating neurodegenerative disorders” (ETHNODYNE, priority 2017, dated 2023).
